Here are results for nine compounds from ChEMBL document CHEMBL1201862, “PubChem BioAssay data set” (2004).

One assay addresses T1, Coagulation factor XII (Homo sapiens, UniProt P00748).
T1 sequence (P00748 whole entry): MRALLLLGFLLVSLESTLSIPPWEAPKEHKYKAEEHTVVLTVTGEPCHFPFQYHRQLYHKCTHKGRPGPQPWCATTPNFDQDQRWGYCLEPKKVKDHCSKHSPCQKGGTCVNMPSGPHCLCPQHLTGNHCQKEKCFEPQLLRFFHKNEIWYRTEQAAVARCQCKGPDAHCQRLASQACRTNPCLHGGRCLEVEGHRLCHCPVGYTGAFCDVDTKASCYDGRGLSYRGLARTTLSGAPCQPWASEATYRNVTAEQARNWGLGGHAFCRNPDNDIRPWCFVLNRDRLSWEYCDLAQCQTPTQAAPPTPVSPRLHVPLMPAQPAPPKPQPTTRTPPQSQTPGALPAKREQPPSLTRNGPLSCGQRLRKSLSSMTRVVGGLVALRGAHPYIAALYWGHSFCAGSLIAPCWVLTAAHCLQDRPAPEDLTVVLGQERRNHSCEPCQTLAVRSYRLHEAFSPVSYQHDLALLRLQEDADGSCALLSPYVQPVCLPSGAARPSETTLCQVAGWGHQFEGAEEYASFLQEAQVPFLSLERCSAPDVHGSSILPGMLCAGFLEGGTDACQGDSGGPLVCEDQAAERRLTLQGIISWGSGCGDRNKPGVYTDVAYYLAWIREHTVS
It counts as functional.

Assay [1] has as its target T2, High affinity choline transporter 1 (Homo sapiens, UniProt Q9GZV3).
T2 sequence (Q9GZV3 whole entry): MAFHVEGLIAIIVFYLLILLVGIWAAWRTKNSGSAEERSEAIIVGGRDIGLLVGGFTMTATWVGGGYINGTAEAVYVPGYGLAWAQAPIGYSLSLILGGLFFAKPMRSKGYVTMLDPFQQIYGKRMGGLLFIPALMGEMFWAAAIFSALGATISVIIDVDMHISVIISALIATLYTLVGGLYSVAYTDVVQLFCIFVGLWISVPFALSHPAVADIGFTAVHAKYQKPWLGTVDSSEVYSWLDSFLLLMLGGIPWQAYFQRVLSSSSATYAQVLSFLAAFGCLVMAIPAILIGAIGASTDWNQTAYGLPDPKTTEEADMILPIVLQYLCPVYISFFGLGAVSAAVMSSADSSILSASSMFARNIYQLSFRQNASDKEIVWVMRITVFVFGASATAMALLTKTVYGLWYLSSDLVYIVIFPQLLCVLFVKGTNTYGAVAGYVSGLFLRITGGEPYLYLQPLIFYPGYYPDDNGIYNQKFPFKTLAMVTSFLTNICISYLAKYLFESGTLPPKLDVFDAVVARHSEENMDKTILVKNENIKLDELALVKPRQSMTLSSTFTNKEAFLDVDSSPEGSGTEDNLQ
As to the kind of experiment: CHT inhibitors, dose response, cell-based, 5-point CRC, membrane potential dye (AID 504840). It counts as functional.

Assay [2] in a line: Counterscreen for AddAB inhibitors: absorbance-based bacterial cell-based high throughput dose response assay for inhibitors of bacterial viability. [Related pubchem assays (depositor defined):AID435030, AID449728, AID449731, AID488942, AID488955, AID488956]. It counts as functional.
The target in a further assay is Exodeoxyribonuclease V (Escherichia coli (strain K12), UniProt P04993+P07648+P08394). The assay can be described thus: E. coli RecBCD inhibitors, dose response, counter-screen for AddAB inhibitor project, absorbance, V66 E. coli, mutant T4 phage (AID 492957). It counts as functional, cell-based, Escherichia coli str. K-12 substr. MG1655.
Assay [3] deals with T3, Nucleotide-binding oligomerization domain-containing protein 1 (Homo sapiens, UniProt Q9Y239).
T3 sequence (Q9Y239 whole entry): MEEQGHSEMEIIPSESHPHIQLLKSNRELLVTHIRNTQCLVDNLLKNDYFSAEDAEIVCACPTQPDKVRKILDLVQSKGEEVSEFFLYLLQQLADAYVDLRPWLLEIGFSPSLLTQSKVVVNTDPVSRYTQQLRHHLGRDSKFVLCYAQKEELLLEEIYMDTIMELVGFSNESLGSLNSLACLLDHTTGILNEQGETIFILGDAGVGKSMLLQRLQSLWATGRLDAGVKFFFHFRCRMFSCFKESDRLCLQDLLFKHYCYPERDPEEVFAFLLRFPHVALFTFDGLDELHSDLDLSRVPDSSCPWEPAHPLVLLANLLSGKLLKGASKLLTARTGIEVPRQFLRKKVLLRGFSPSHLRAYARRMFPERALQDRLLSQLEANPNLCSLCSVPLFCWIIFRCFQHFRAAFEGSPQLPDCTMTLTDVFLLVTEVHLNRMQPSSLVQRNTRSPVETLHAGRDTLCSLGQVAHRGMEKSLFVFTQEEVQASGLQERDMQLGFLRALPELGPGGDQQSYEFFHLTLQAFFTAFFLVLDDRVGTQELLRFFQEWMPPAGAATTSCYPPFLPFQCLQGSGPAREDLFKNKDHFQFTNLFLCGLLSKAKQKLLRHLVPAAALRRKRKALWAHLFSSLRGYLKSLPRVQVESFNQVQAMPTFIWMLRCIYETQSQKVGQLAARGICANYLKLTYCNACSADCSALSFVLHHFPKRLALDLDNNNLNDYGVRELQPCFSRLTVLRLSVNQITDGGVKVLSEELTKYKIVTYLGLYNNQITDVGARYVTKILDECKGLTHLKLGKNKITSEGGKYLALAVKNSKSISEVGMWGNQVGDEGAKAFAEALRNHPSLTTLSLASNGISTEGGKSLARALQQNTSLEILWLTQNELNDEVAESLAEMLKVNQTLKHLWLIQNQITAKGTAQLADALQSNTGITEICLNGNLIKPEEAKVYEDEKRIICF
As to the kind of experiment: NOD1 signaling inhibitors, SAR follow-up, revised (AID 2333). It counts as functional.

Another assay concerns HEK293. As to the kind of experiment: cells. Conditions: Homo sapiens.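 Also: cells exposed to compound for 14 hours overnight before viability readout.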
The target in the next assay is Tumor necrosis factor (Homo sapiens, UniProt P01375). The assay can be described thus: TNFa-triggered NF-kB activation inhibitors, SAR follow-up, cell-based, revised (AID 2337). In kind it is functional.
Assay [4] concerns the target Intestinal-type alkaline phosphatase (Mus musculus, UniProt P24822). The assay can be described thus: PubChem AID 488785. In kind it is functional.
The next assay has as its system Streptococcus. As to the kind of experiment: Group A Streptococcus viability loss, dose response, counter-screen for streptokinase expression inhibitor project, luminescence, BacTiterGlo (AID 1915).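 Also: potency for reduction of bacterial viability or growth.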 In kind it is functional, organism-based.
For assay [5], the target named is T4, Alkaline phosphatase, tissue-nonspecific isozyme (Homo sapiens, UniProt P05186).
T4 sequence (P05186 whole entry): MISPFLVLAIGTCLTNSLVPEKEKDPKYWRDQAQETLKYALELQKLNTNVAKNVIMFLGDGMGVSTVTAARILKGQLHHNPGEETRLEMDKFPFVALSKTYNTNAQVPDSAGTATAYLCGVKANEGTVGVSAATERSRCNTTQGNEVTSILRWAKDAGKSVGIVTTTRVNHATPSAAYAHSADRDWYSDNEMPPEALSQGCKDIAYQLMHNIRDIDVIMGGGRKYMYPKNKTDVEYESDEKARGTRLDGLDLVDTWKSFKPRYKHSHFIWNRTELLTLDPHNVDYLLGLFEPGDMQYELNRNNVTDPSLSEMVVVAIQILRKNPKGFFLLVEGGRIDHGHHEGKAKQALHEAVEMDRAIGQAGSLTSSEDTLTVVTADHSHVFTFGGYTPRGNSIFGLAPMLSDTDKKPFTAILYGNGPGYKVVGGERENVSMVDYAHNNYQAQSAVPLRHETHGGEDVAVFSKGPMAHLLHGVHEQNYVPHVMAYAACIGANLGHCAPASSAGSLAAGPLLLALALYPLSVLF
The assay can be described thus: TNAP enzyme inhibition by screening hits, dose response, selectivity assay for mouse IAP inhibitor project, biochemical, human TNAP, uHTS hits (AID 488906). In kind it is functional.

The nature of assay [6]: Luminescence Cell-Based Dose Retest to Confirm Inhibitors of Cancer Stem Cells. [Related pubchem assays (depositor defined):AID2717, AID2721]. In kind it is functional. Conditions: Homo sapiens.
In assay [7] the target is Intestinal-type alkaline phosphatase (Homo sapiens, UniProt P09923). As to the kind of experiment: inhibition of human intestinal alkaline phosphatase – biochemical, dose response (AID 488876). It counts as functional.
For assay [8], the system named is Streptococcus sp. 'group A'. The assay can be described thus: growth inhibition of control SK(-) GAS strain, dose response, counter-screen for streptokinase expression inhibitor project, luminescence, kanamycin, BacTiterGlo, confirmation (AID 1900). It counts as functional, organism-based.
The target in another assay is T5, Streptokinase A (Streptococcus pyogenes serotype M1, UniProt P10520).
T5 sequence (P10520 whole entry): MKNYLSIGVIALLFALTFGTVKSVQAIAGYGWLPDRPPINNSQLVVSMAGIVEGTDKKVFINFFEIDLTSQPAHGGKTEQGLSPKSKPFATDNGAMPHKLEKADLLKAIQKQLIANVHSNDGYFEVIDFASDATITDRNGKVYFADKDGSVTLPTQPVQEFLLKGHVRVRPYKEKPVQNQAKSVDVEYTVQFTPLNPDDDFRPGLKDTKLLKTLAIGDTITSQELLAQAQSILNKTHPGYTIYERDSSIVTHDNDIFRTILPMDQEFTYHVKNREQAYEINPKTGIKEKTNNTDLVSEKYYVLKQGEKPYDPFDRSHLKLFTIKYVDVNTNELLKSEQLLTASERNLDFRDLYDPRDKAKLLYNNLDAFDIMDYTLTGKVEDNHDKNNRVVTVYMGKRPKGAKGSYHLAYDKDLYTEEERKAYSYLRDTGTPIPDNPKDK
The assay can be described thus: S. pyogenes streptokinase expression inhibitors, potency, dose response, plasminogen activation absorbance, OD405 (AID 1914).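 Also: secreted streptokinase activity via plasminogen activation per viability signal from cell pellet.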 It counts as functional, Streptococcus pyogenes M1 GAS.

Another assay concerns the target Nonstructural protein 1 (Influenza A virus, UniProt Q194T2). In kind it is functional, Influenza A virus (A/California/07/2009(H1N1)).
The target in another assay is T6, Estrogen receptor (Homo sapiens, UniProt P03372).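 Also: potency for inhibiting coactivator peptide recruitment to the receptor.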
T6 sequence (P03372 whole entry): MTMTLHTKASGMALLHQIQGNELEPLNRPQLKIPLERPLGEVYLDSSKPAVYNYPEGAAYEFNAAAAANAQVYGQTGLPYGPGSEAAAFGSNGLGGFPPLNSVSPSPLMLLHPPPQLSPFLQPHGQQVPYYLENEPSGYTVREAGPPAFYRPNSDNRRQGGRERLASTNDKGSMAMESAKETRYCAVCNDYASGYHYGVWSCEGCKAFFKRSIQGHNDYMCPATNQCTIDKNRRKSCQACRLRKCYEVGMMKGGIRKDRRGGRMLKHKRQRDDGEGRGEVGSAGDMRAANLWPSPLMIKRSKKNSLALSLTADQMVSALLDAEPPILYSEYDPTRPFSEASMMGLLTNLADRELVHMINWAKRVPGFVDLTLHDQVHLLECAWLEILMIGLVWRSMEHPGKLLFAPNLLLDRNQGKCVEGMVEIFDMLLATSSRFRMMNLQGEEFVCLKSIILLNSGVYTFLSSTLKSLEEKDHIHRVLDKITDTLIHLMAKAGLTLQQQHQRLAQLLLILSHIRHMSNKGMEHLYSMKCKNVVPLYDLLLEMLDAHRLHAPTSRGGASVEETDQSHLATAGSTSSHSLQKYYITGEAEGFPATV

The source made the active and inactive calls.
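For AC50 in this document: cells exposed to compound for roughly 70 hours or longer before luminescence read.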

Intestinal-type alkaline phosphatase (Mus musculus, UniProt P24822), sequence (P24822 whole entry): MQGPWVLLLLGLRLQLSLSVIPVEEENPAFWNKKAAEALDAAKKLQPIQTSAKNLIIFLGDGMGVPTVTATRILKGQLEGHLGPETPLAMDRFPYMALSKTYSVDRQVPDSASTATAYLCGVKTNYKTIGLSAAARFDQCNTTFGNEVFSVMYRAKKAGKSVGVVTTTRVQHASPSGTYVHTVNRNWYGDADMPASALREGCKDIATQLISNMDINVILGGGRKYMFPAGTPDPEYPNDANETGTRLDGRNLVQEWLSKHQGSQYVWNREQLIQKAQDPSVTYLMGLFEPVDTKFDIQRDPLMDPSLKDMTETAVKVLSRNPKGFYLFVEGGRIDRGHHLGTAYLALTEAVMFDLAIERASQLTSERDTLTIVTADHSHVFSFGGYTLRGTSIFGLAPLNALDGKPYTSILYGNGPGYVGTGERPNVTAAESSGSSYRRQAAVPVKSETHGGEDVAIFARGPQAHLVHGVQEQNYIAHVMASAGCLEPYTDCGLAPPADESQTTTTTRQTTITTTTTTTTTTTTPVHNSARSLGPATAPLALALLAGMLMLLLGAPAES
Exodeoxyribonuclease V, sequence (P04993 whole entry, the tested form may be a part): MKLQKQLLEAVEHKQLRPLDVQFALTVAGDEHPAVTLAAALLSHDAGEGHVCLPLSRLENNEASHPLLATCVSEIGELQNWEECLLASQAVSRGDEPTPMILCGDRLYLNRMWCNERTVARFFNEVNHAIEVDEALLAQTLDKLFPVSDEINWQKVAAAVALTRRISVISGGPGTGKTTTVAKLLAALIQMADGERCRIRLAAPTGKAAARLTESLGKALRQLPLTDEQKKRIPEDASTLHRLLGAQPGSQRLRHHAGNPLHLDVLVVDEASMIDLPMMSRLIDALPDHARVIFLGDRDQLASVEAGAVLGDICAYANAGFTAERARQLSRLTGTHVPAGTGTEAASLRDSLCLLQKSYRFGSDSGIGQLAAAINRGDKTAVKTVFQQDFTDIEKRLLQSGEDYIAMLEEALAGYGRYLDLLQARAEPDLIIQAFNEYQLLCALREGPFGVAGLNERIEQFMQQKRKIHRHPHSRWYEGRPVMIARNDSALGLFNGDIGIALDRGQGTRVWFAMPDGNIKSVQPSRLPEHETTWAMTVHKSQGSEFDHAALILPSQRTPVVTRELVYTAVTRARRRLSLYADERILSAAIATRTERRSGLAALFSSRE
Exodeoxyribonuclease V, sequence (P07648 whole entry, the tested form may be a part): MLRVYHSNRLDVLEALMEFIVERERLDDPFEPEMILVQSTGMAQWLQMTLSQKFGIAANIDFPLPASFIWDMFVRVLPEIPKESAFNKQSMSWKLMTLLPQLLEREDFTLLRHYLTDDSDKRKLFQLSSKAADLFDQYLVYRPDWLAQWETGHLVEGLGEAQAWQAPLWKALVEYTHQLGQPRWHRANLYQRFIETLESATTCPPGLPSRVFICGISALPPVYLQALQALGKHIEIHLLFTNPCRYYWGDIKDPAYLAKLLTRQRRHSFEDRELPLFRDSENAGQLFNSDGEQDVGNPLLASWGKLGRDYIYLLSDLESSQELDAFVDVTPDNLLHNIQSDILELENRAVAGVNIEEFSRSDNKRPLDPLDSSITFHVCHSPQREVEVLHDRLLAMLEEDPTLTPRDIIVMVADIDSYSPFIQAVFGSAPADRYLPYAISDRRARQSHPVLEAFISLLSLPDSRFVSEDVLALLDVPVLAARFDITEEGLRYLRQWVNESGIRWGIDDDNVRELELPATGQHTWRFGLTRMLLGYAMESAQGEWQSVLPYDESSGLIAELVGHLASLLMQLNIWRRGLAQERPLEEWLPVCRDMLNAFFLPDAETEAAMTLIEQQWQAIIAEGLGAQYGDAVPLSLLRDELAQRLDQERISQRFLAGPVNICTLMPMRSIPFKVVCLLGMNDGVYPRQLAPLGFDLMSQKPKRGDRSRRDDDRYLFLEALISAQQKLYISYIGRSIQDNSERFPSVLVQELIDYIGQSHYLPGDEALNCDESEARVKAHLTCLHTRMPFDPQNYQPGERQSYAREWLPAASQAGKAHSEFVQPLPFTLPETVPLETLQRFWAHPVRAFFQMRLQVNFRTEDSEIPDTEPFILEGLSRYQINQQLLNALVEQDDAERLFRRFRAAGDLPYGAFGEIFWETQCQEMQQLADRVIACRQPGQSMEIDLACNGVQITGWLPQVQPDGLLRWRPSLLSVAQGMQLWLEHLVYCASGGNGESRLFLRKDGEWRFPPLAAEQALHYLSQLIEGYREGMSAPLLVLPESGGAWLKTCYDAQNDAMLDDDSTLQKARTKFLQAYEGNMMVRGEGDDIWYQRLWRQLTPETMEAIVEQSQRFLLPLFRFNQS
Exodeoxyribonuclease V, sequence (P08394 whole entry, the tested form may be a part): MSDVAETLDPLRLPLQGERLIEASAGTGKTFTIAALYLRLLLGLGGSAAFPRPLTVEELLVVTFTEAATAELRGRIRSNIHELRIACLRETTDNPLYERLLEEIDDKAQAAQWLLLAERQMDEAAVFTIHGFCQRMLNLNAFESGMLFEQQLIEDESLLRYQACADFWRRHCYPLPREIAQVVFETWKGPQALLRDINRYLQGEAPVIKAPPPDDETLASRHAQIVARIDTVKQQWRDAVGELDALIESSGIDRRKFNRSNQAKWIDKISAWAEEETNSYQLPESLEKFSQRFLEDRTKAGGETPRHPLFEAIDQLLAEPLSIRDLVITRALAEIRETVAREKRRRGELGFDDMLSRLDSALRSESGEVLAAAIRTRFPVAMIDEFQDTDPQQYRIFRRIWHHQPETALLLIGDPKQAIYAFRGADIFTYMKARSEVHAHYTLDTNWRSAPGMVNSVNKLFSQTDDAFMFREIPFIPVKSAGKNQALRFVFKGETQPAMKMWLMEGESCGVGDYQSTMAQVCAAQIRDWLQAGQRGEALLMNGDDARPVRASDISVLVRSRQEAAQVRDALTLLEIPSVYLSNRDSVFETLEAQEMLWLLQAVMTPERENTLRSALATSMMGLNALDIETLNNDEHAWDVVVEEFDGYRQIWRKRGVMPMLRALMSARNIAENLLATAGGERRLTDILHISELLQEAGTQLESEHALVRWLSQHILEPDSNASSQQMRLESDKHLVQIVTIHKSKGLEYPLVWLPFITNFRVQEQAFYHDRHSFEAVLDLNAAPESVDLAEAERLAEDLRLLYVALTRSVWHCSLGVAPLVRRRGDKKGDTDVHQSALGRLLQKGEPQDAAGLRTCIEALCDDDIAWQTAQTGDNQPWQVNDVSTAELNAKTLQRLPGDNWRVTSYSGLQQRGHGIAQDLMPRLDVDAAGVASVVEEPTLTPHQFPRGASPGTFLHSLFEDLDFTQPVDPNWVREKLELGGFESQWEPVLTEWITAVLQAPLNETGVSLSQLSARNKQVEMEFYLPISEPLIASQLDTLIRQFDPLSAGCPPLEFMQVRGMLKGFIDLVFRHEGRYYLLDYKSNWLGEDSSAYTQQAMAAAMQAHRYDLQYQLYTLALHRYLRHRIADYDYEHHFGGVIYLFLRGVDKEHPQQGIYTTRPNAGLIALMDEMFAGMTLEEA
Intestinal-type alkaline phosphatase (Homo sapiens, UniProt P09923), sequence (P09923 whole entry): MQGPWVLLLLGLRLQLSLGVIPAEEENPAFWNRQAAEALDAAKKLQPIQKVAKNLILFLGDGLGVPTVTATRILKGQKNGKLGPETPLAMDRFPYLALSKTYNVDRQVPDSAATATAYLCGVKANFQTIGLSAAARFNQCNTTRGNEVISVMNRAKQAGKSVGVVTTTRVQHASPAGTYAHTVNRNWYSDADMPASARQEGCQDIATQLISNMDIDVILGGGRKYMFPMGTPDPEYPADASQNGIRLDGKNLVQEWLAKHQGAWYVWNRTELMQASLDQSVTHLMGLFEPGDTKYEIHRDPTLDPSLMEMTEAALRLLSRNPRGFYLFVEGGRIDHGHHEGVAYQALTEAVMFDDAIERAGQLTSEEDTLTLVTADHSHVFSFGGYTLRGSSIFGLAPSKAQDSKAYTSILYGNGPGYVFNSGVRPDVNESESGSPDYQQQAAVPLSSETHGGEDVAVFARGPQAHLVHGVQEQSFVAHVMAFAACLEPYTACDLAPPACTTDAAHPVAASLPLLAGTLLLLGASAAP
Nonstructural protein 1, sequence (Q194T2 whole entry): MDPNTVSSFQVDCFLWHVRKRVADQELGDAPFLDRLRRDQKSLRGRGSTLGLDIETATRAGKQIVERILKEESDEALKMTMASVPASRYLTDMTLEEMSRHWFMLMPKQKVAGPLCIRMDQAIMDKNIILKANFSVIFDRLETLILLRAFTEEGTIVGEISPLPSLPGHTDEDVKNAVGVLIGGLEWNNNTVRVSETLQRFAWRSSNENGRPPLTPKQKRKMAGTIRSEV
Tumor necrosis factor, sequence (P01375 whole entry): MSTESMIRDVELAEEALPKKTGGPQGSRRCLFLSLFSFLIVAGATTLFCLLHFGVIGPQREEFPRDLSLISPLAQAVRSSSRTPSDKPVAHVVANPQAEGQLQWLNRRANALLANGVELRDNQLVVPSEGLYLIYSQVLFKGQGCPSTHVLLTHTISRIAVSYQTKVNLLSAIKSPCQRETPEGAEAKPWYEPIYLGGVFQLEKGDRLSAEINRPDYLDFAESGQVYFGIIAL

As for `COc1cc(COCC(O)CN2CCOCC2)cc(OC)c1OC` (stereo not drawn), the IC50 at Coagulation factor XII was > 50 µM (inactive).

As to `C/C(=N\N=C(N)N)c1ccc(Cl)c(Cl)c1`, the 50% inhibitory concentration (IC50) in assay [1] is 13.8 µM (active).

In the case of `CCOc1ccc(NC(S)=NCc2nc3ccccc3[nH]2)cc1`, the IC50 (in assay [2]; at Exodeoxyribonuclease V) was > 119 µM (inactive) throughout.

Consider `Cc1ccc(-c2nc3ccccc3s2)cc1`, for which the IC50 (in assay [3]; with HEK293; on Tumor necrosis factor) was > 20 µM (inactive) each time.

As to `S=C(NCCC(c1ccccc1)c1ccccc1)Nc1cccc(Cl)c1`, the IC50 is 6.96 µM (active) in assay [4], 22.9 µM (active) in assay [5] and 57.7 µM (active) in assay [7]. Moreover, the results for the EC50 (with Streptococcus; in assay [8]; at Streptokinase A) were 10.5 µM (active), 3.81 µM (active) and 15.3 µM (active), respectively. Besides, the AC50 in assay [6] was 2.27 µM (active).

Consider `CCCCOc1ccc(Cc2cnc(N)nc2N)cc1`, for which the IC50 in assay [2] was 85.2 µM (inactive); on Exodeoxyribonuclease V it was 114 µM (inactive).

Regarding `CN(CCNC(=O)CN1CCN(Cc2ccccc2Cl)C1=O)Cc1ccccc1`, in [1], the IC50 was 15.9 µM (active).

As to `COCc1ccc(CN2CCC(C(=O)Nc3cccc(-c4cccc(Cl)c4)c3)CC2)o1`, the half-maximal inhibitory concentration (IC50) in [4] was 2.01 µM (active); in assay [5] it was 17.8 µM (active); at Nonstructural protein 1, > 100 µM (active); in assay [7], > 100 µM (inactive).

Consider `Cc1ccc(-c2nnc3n2N=C(c2ccc(Br)cc2)CS3)cc1`, for which the IC50 is > 50 µM (inactive) on Coagulation factor XII and 42.3 µM (not active) against Estrogen receptor.
